The values below come from patent US20180015017A1, “USE OF GLUCOSYLGLYCEROL” (Bitop AG, priority 2008, published 2018).

One assay relates to SOD-1. Kind of assay: Expression of SOD-1 mRNA in keratinocytes (33P-labeled cDNA chip, phosphor imaging). Format: cell-based, human. The settings on record: for Upregulation of the cytosolic SOD-1: relative amount of hybridized targets (radioactivity, phosphor imaging): NHEK keratinocytes, 0.5-% (w/w) aqueous solution; for increase of the expression of SOD-1: keratinocytes, 0.5-% glucosylglycerol solution. On the procedure:
(§1) In these tests appropriate cell cultures were treated with a glucosylglycerol solution and the transcribed mRNA quantified. For this purpose the mRNA was first extracted to produce a ^33P labeled target with the help of a reverse transcriptase. Following this, these targets were applied to a cDNA chip and the radioactivity measured by means of the phosphor imaging method. The cDNA chip contained an array of the cDNAs of various proteins.
(§2) The investigations were carried out with epidermal keratinocytes (NHEK, normal human epidermal keratinocytes) and dermal fibroblasts (NHDF, normal human dermal fibroblasts). In the case of the keratinocytes a 0.5-% (w/w) and in the case of the fibroblasts a 1-% (w/w) aqueous glucosylglycerol solution was used for the treatment.
Keratinocytes: Keratinocyte-SFM (Invitrogen 17005-034) blended with epidermal growth factor (EGF) 0.25 ng/ml, pituitary extract (PE) 25 μg/ml (Invitrogen 3700015), Gentamycin […] (Sigma G1397).
(§3) Culturing took place for a period of 24 and 96 hours. At the end of the incubation period the cells were washed with PBS solution (Invitrogen 14190094).
(§4) The extraction of mRNA of each culture was achieved using TriReagent as per a standard protocol. The relevant cDNAs with ^33P-labeled targets was produced by reverse transcription of mRNA using [α^33P]-dATP and oligodT.
(§5) The labeled cDNA targets were hybridized to the specific cDNA probes covalently fixed to minichips. After thorough washing the relative amount of the hybridized targets was determined by means of the phosphor imaging method. This analysis was performed by measuring the radioactivity by means of a “Cyclone” Phosphor Imager (Packard Instruments; 72 hours exposure time) and using the ImageQuant TL-Software (Amersham Biosiences).

A further assay deals with SOD-2. Kind of assay: Expression of SOD-2 mRNA in fibroblasts (33P-labeled cDNA chip, phosphor imaging). The class given is cell-based, human. Conditions: for Upregulation of SOD-2: relative amount of hybridized targets (radioactivity, phosphor imaging): NHDF fibroblasts, 1-% (w/w) aqueous solution. On the procedure:
as §1, §2
Fibroblasts: DMEM (Invitrogen 21969035), blended with L-glutamine 2 mM (Invitrogen 25030024), Penicillin 50 Ul/ml/Streptomycin 50 μg/ml (Invitrogen 15070063), fetal calf serum 10% (FCS, Invitrogen 10270098).
as §3, §4, §5

For the molecule `OCC(CO)O[C@H]1O[C@H](CO)[C@@H](O)[C@H](O)[C@H]1O` [glucosylglycerol, 2-O-α-D-glucosylglycerol], the “Upregulation of the cytosolic SOD-1: relative amount of hybridized targets (radioactivity, phosphor imaging)” value in the assay on SOD-1 (24 h, control 18.2) came to 85; with SOD-1 (96 h, control 9.3), 182. Also, the figures for the “increase of the expression of SOD-1” value with SOD-1 (within 24 hours) and with SOD-1 (within 96 hours) were 4.7 times and 19.6 times, respectively. For the same molecule, the “Upregulation of SOD-2: relative amount of hybridized targets (radioactivity, phosphor imaging)” value with SOD-2 (24 h, control 16.5) is on record as 419; in the assay with SOD-2 (96 h, control 9.1), 313. Also, the “higher expression of SOD-2” value in the assay with SOD-2 (fibroblasts, 1-% glucosylglycerol solution, within 24 hours) was found to be 25.4 times. For the same molecule, in the assay with SOD-2 (fibroblasts, 1-% glucosylglycerol solution, within 96 hours), the “increase of expression of SOD-2” value is recorded as 34.4 fold.
